# Measurements as given in PubChem BioAssay AID328 (DTP/NCI, 2004).
# Several values for one entry are separate records, joined by “and”; a condition that tells them apart may be missing. Equal values may be shown once. Toxic doses and inconclusive results are not listed.
# Tested on: BDF1 mice, P388 leukemia ip, median survival T/C
# Test: NCI In Vivo Anticancer Drug Screen. Data for tumor model P388 Leukemia (intraperitoneal) in B6D2F1 (BDF1) mice
# Details: endpoint: median survival time, higher = longer survival
# How it was run: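 Mice carrying the transplantable tumour receive compound or vehicle. Survival is followed in each arm, and the treated measure is divided by the vehicle measure.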
# [1] = dose: 100.0 mg/kg/injection, schedule: Q01DX009 (ip), vehicle: saline with Tween-80
# [2] = dose: 200.0 mg/kg/injection, schedule: Q01DX009 (ip), vehicle: saline with Tween-80
# [3] = dose: 400.0 mg/kg/injection, schedule: Q01DX009 (ip), vehicle: saline with Tween-80
# [4] = dose: 50.0 mg/kg/injection, schedule: Q01DX009 (ip), vehicle: saline with Tween-80
# [5] = dose: 25.0 mg/kg/injection, schedule: Q04DX003 (ip), vehicle: saline
# [6] = dose: 50.0 mg/kg/injection, schedule: Q04DX003 (ip), vehicle: saline
structure (smiles),measurement,setting,value
CCCCSc1ncnc2c1ncn2C1CCCCO1 (centres undefined),T/C,"dose: 100.0 mg/kg/injection, schedule: Q01DX009 (ip), vehicle: saline sonified",90 % of control
same,T/C,"dose: 100.0 mg/kg/injection, schedule: Q04DX003 (ip), vehicle: saline with Tween-80",87 % of control
same,T/C,"dose: 200.0 mg/kg/injection, schedule: Q01DX009 (ip), vehicle: saline sonified",122 % of control
same,T/C,"dose: 200.0 mg/kg/injection, schedule: Q04DX003 (ip), vehicle: saline with Tween-80",100 % of control
same,T/C,"dose: 400.0 mg/kg/injection, schedule: Q01DX009 (ip), vehicle: saline sonified",100 % of control
same,T/C,"dose: 400.0 mg/kg/injection, schedule: Q04DX003 (ip), vehicle: saline with Tween-80",100 % of control
C[C@]12CCC(=O)C=C1CC[C@@H]1[C@@H]2[C@@H](O)C[C@@]2(C)[C@H]1CC[C@]2(O)C(=O)COC(=O)COCC(=O)O,T/C,[1],109 % of control
same,T/C,[2],109 % of control
same,T/C,[3],109 % of control
CCCCCCCS(=O)CCCCCCC,T/C,"dose: 6.25 mg/kg/injection, schedule: Q01DX009 (ip), vehicle: saline with Tween-80",102 % of control
same,T/C,"dose: 12.5 mg/kg/injection, schedule: Q01DX009 (ip), vehicle: saline with Tween-80",104 % of control
same,T/C,"dose: 25.0 mg/kg/injection, schedule: Q01DX009 (ip), vehicle: saline with Tween-80",95 % of control
same,T/C,[4],104 % of control
CCC[CH2][Sn]1([CH2]CCC)[N](S(=O)(=O)c2ccc(C)cc2)c2ccccc2[N]1S(=O)(=O)c1ccc(C)cc1,T/C,"dose: 1.5 mg/kg/injection, schedule: Q01DX009 (ip), vehicle: Klucel (hydroxypropylcellulose) (HPC)",91 % of control
same,T/C,"dose: 6.0 mg/kg/injection, schedule: Q01DX009 (ip), vehicle: Klucel (hydroxypropylcellulose) (HPC)",150 % of control
same,T/C,"dose: 12.0 mg/kg/injection, schedule: Q01DX009 (ip), vehicle: Klucel (hydroxypropylcellulose) (HPC)",176 % of control
CN1CCC2=C(C1)C(N1CCCCC1)CS(=O)(=O)O2 (centres undefined),T/C,"dose: 25.0 mg/kg/injection, schedule: Q04DX002 (ip), vehicle: saline",93 % of control
same,T/C,"dose: 50.0 mg/kg/injection, schedule: Q04DX002 (ip), vehicle: saline",97 % of control
same,T/C,"dose: 100.0 mg/kg/injection, schedule: Q04DX002 (ip), vehicle: saline with Tween-80",93 % of control
O=C(NC(=S)N1CC=CCC1)c1ccccc1,T/C,[4],87 % of control
same,T/C,[1],111 % of control
same,T/C,[2],108 % of control
same,T/C,[3],101 % of control
CC1=CC(c2ccc3c(c2)OCO3)c2c(c3ccccc3oc2=O)O1 (centres undefined),T/C,"dose: 12.5 mg/kg/injection, schedule: Q01DX009 (ip), vehicle: water",107 % of control
same,T/C,"dose: 100.0 mg/kg/injection, schedule: Q04DX003 (ip), vehicle: water",104 % of control
same,T/C,"dose: 200.0 mg/kg/injection, schedule: Q04DX003 (ip), vehicle: water",98 % of control
same,T/C,"dose: 400.0 mg/kg/injection, schedule: Q04DX003 (ip), vehicle: water",90 % of control
C1CCC2C(C1)NC1CCCCC12 (centres undefined),T/C,"dose: 12.0 mg/kg/injection, schedule: Q04DX003 (ip), vehicle: saline",109 % of control
same,T/C,"dose: 12.5 mg/kg/injection, schedule: Q01DX001 (ip), vehicle: saline sonified",100 % of control
same,T/C,"dose: 25.0 mg/kg/injection, schedule: Q01DX001 (ip), vehicle: saline sonified",90 % of control
same,T/C,"dose: 25.0 mg/kg/injection, schedule: Q01DX009 (ip), vehicle: saline",112 % of control
same,T/C,[5],95 % of control
same,T/C,"dose: 50.0 mg/kg/injection, schedule: Q01DX001 (ip), vehicle: saline sonified",90 % of control
same,T/C,"dose: 50.0 mg/kg/injection, schedule: Q01DX009 (ip), vehicle: saline",104 % of control
same,T/C,[6],109 % of control
CC(=O)Nc1ccc(OCCOC(=O)Nc2ccc(C)cc2[N+](=O)[O-])cc1,T/C,"dose: 12.5 mg/kg/injection, schedule: Q01DX009 (ip), vehicle: Klucel (hydroxypropylcellulose) (HPC)",105 % of control
same,T/C,"dose: 25.0 mg/kg/injection, schedule: Q01DX009 (ip), vehicle: Klucel (hydroxypropylcellulose) (HPC)",93 % of control
[NH-]CC(=O)[N-]CC(=O)O.[NH-]CC(=O)[N-]CC(=O)O.[Ni],T/C,"dose: 3.0 mg/kg/injection, schedule: Q01DX009 (ip), vehicle: saline",100 % of control
same,T/C,"dose: 6.0 mg/kg/injection, schedule: Q01DX009 (ip), vehicle: saline",103 % of control
same,T/C,"dose: 12.0 mg/kg/injection, schedule: Q01DX009 (ip), vehicle: saline",116 % of control
same,T/C,"dose: 12.5 mg/kg/injection, schedule: Q04DX003 (ip), vehicle: saline",104 % of control
same,T/C,"dose: 18.0 mg/kg/injection, schedule: Q01DX009 (ip), vehicle: saline",110 % of control
same,T/C,[5],109 % of control
same,T/C,[6],100 % of control and 118 % of control
[Cl][Pt+2][Cl].[NH-]C1CCCC1.[NH-]C1CCCC1,T/C,"dose: 10.0 mg/kg/injection, schedule: Q01DX009 (ip), vehicle: Klucel (hydroxypropylcellulose) (HPC)",96 % of control
same,T/C,"dose: 20.0 mg/kg/injection, schedule: Q01DX009 (ip), vehicle: Klucel (hydroxypropylcellulose) (HPC)",107 % of control
same,T/C,"dose: 40.0 mg/kg/injection, schedule: Q01DX009 (ip), vehicle: Klucel (hydroxypropylcellulose) (HPC)",112 % of control
same,T/C,"dose: 80.0 mg/kg/injection, schedule: Q01DX009 (ip), vehicle: Klucel (hydroxypropylcellulose) (HPC)",117 % of control
CC1(C)CC2(OC2c2ccccc2)C(C)(O)c2ccccc21 (centres undefined),T/C,"dose: 100.0 mg/kg/injection, schedule: Q01DX009 (ip), vehicle: Klucel (hydroxypropylcellulose) (HPC)",95 % of control
same,T/C,"dose: 100.0 mg/kg/injection, schedule: Q04DX003 (ip), vehicle: Klucel (hydroxypropylcellulose) (HPC)",110 % of control
same,T/C,"dose: 200.0 mg/kg/injection, schedule: Q01DX009 (ip), vehicle: Klucel (hydroxypropylcellulose) (HPC)",90 % of control
same,T/C,"dose: 200.0 mg/kg/injection, schedule: Q04DX003 (ip), vehicle: Klucel (hydroxypropylcellulose) (HPC)",105 % of control
same,T/C,"dose: 400.0 mg/kg/injection, schedule: Q01DX009 (ip), vehicle: Klucel (hydroxypropylcellulose) (HPC)",100 % of control
same,T/C,"dose: 400.0 mg/kg/injection, schedule: Q04DX003 (ip), vehicle: Klucel (hydroxypropylcellulose) (HPC)",105 % of control
